Results from patent publication US7045343B2, “Sterilization indicator test packs” (3M Innovative Properties Company, priority 1998, dated 2006).

Experiments:
[1] = tested on: enzyme associated with Bacillus stearothermophilus spores; experiment: Rapid enzyme fluorescence readout of indicators after hydrogen peroxide plasma sterilization; assay type: biochemical; settings: for FLUORESCENCE - PERCENT POSITIVE 1 HR / FLUORESCENCE - PERCENT POSITIVE 2 HR / FLUORESCENCE - PERCENT POSITIVE 3 HR / FLUORESCENCE - PERCENT POSITIVE 4 HR / FLUORESCENCE - PERCENT POSITIVE 5 HR: 1–22 min diffusion; for accuracy of sterilization indicators compared to indicators made with untreated spores: 1–3 hours after exposure;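 as to FLUORESCENCE - PERCENT POSITIVE 5 HR: percent of growth-positive indicators that were also fluorescence-positive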
Method in brief: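 Indicators with a TYVEK closure held spores coated with various chemicals and were exposed to hydrogen peroxide plasma at 45–55 °C: 6–7 mg/ml chamber peroxide, diffusing 1–22 min at 6–10 Torr. Enzyme fluorescence was read hourly for 5 h at 60 °C. Growth was scored visually as a purple-to-yellow change after 168 h.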

[2] = tested on: Bacillus stearothermophilus spores; experiment: Spore outgrowth (color change) of indicators after prevacuum steam sterilization; assay type: cell-based; settings: 4-pulse prevacuum steam 121° C.
Method in brief: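 Self-contained indicators held coated spore strips, a polypropylene microfiber barrier and a crushable inner container. That container held peptone, L-alanine, 4-methylumbelliferyl-alpha-D-glucoside and bromocresol purple at pH 7.6. Indicators sat in metal trays in a Getinge sterilizer running pulses of 0.075–0.085 bar vacuum and steam to 1.00 bar at 121° C. Incubation at 60° C followed, and yellow color at 168 hours scored spore outgrowth.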

[3] = tested on: enzyme associated with Bacillus stearothermophilus spores; experiment: Rapid enzyme fluorescence readout of dual rapid readout indicators after prevacuum steam sterilization; assay type: biochemical; settings: 4-pulse prevacuum steam 121° C.
Method in brief: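 This is a rapid enzyme test in which spore-associated enzyme activity is detected by fluorescence. Spores coated with chemicals were dried on 5×25 mm paper strips for 16 hours at 37° C. They were loaded into indicators that carried 4-methylumbelliferyl-alpha-D-glucoside substrate, with untreated spores serving as controls. After 4-pulse prevacuum steam exposure at 121° C, with vacuum at 0.075–0.085 bar, the substrate ampoules were crushed and the indicators were incubated at 60° C and read with an autoreader.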

[4] = tested on: Bacillus stearothermophilus spores; experiment: Spore outgrowth (color change) of indicators after hydrogen peroxide plasma sterilization; assay type: cell-based; settings: 1–22 min diffusion
Description: Sterilization indicators for Examples 6–9 were prepared as described above with the exception that closure member 22 of the sterilization indicator was constructed of TYVEK™ high-density polyethylene fiber material, commercially available from E.I. du Pont de Nemours and Co., Wilmington, Del.
(§1) Sterilization indicators were made as described above with spores that had been coated with each of the chemicals and concentrations listed in Table 6. The indicators were placed in instrument trays and exposed to a hydrogen peroxide plasma sterilization procedure at 45–55° C. in a STERRAD™ 100SI GMP Sterilizer, obtained from Advanced Sterilization Products Co., Irvine, Calif. During the sterilization procedure a vacuum was drawn in the sterilization chamber for 5–6 minutes until the pressure was reduced to 300 mTorr. A 1.8 ml aliquot of an aqueous solution of 58–60% hydrogen peroxide was then injected into the sterilization chamber over a period of about 6 minutes, yielding an empty chamber concentration of […] hydrogen peroxide, and hydrogen peroxide vapor was allowed to diffuse throughout the chamber for 1–22 minutes at 6–10 Torr. A vacuum was then drawn, reducing the pressure to 500 mTorr and removing all detectable hydrogen peroxide vapor from the chamber.
After exposure to the sterilization procedure, the indicators were removed from the sterilizer and the inner containers containing the enzyme substrate and nutrient medium were crushed. The indicators were then incubated at 60° C. and examined for fluorescence every hour for 5 hours using a 3M™ ATTEST™ Model 190 Rapid Autoreader, commercially available from 3M Company, St. Paul, Minn. Additionally, spore growth, as indicated by a color change from purple to yellow, was determined visually after 168 hours of incubation.
The number of growth positive indicators detected after 168 hours of incubation is recorded in Table 6.
as §1, with “7.” for “6.”
as §1, with “8.” for “6.”, “chamber. […]” for “chamber.”

[5] = Example 4, 50 mg/ml coating, 7–18 min
[6] = Example 4, 100 mg/ml coating, 7–18 min
[7] = Example 5, 50 mg/ml coating, 7–13 min
[8] = Example 5, 100 mg/ml coating, 7–13 min

Decaglyceryl Trioleate
FLUORESCENCE - PERCENT POSITIVE 1 HR ([1]; Example 6, 50 mg/ml coating): 85.0%
FLUORESCENCE - PERCENT POSITIVE 2 HR ([1]; Example 6, 50 mg/ml coating): 97.5%
FLUORESCENCE - PERCENT POSITIVE 3 HR ([1]; Example 6, 50 mg/ml coating): 100%
FLUORESCENCE - PERCENT POSITIVE 4 HR ([1]; Example 6, 50 mg/ml coating): 100%
FLUORESCENCE - PERCENT POSITIVE 5 HR ([1]; Example 6, 50 mg/ml coating): 100%
NO. GROWTH POSITIVE 168 HR [2, 5]: 19
NO. GROWTH POSITIVE 168 HR [2, 6]: 26
FLUORESCENCE - PERCENT POSITIVE 1 HR [3, 5]: 0.0%
FLUORESCENCE - PERCENT POSITIVE 2 HR [3, 5]: 21.1%
FLUORESCENCE - PERCENT POSITIVE 3 HR [3, 5]: 47.4%
FLUORESCENCE - PERCENT POSITIVE 4 HR [3, 5]: 68.4%
FLUORESCENCE - PERCENT POSITIVE 1 HR [3, 6]: 23.1%
FLUORESCENCE - PERCENT POSITIVE 2 HR [3, 6]: 50.0%
FLUORESCENCE - PERCENT POSITIVE 3 HR [3, 6]: 73.1%
FLUORESCENCE - PERCENT POSITIVE 4 HR [3, 6]: 92.3%
NO. GROWTH POSITIVE 168 HR ([4]; Example 6, 50 mg/ml coating): 40

Tetraglyceryl Monooleate
accuracy of sterilization indicators compared to indicators made with untreated spores [1]: improved
FLUORESCENCE - PERCENT POSITIVE 1 HR ([1]; Example 6, 50 mg/ml coating): 76.6%
FLUORESCENCE - PERCENT POSITIVE 2 HR ([1]; Example 6, 50 mg/ml coating): 90.9%
FLUORESCENCE - PERCENT POSITIVE 3 HR ([1]; Example 6, 50 mg/ml coating): 100%
FLUORESCENCE - PERCENT POSITIVE 4 HR ([1]; Example 6, 50 mg/ml coating): 100%
FLUORESCENCE - PERCENT POSITIVE 5 HR ([1]; Example 6, 50 mg/ml coating): 100%
NO. GROWTH POSITIVE 168 HR [2, 5]: 17
NO. GROWTH POSITIVE 168 HR [2, 6]: 35
accuracy of sterilization indicators compared to indicators made with untreated spores [3]: improved
FLUORESCENCE - PERCENT POSITIVE 1 HR [3, 5]: 0.0%
FLUORESCENCE - PERCENT POSITIVE 2 HR [3, 5]: 52.9%
FLUORESCENCE - PERCENT POSITIVE 3 HR [3, 5]: 52.9%
FLUORESCENCE - PERCENT POSITIVE 4 HR [3, 5]: 58.8%
FLUORESCENCE - PERCENT POSITIVE 1 HR [3, 6]: 57.1%
FLUORESCENCE - PERCENT POSITIVE 2 HR [3, 6]: 100.0%
FLUORESCENCE - PERCENT POSITIVE 3 HR [3, 6]: 100.0%
FLUORESCENCE - PERCENT POSITIVE 4 HR [3, 6]: 100.0%
NO. GROWTH POSITIVE 168 HR ([4]; Example 6, 50 mg/ml coating): 11

Sodium POE(8) Oleyl Ether Phosphate
FLUORESCENCE - PERCENT POSITIVE 1 HR ([1]; Example 8, 50 mg/ml coating): 0%
FLUORESCENCE - PERCENT POSITIVE 2 HR ([1]; Example 8, 50 mg/ml coating): 0%
FLUORESCENCE - PERCENT POSITIVE 3 HR ([1]; Example 8, 50 mg/ml coating): 0%
FLUORESCENCE - PERCENT POSITIVE 4 HR ([1]; Example 8, 50 mg/ml coating): 0%
FLUORESCENCE - PERCENT POSITIVE 5 HR ([1]; Example 8, 50 mg/ml coating): 0%
FLUORESCENCE - PERCENT POSITIVE 1 HR ([1]; Example 8, 100 mg/ml coating): 0%
FLUORESCENCE - PERCENT POSITIVE 2 HR ([1]; Example 8, 100 mg/ml coating): 0%
FLUORESCENCE - PERCENT POSITIVE 3 HR ([1]; Example 8, 100 mg/ml coating): 0%
FLUORESCENCE - PERCENT POSITIVE 4 HR ([1]; Example 8, 100 mg/ml coating): 0%
FLUORESCENCE - PERCENT POSITIVE 5 HR ([1]; Example 8, 100 mg/ml coating): 0%
NO. GROWTH POSITIVE 168 HR [2, 7]: 6
NO. GROWTH POSITIVE 168 HR [2, 8]: 3
FLUORESCENCE - PERCENT POSITIVE 1 HR [3, 7]: 0%
FLUORESCENCE - PERCENT POSITIVE 2 HR [3, 7]: 0%
FLUORESCENCE - PERCENT POSITIVE 3 HR [3, 7]: 0%
FLUORESCENCE - PERCENT POSITIVE 4 HR [3, 7]: 0%
FLUORESCENCE - PERCENT POSITIVE 1 HR [3, 8]: 0%
FLUORESCENCE - PERCENT POSITIVE 2 HR [3, 8]: 0%
FLUORESCENCE - PERCENT POSITIVE 3 HR [3, 8]: 0%
FLUORESCENCE - PERCENT POSITIVE 4 HR [3, 8]: 0%
NO. GROWTH POSITIVE 168 HR ([4]; Example 8, 50 mg/ml coating): 0
NO. GROWTH POSITIVE 168 HR ([4]; Example 8, 100 mg/ml coating): 0

Hexaglyceryl Polyricinolate
FLUORESCENCE - PERCENT POSITIVE 1 HR ([1]; Example 7, 50 mg/ml coating): 83.3%
FLUORESCENCE - PERCENT POSITIVE 2 HR ([1]; Example 7, 50 mg/ml coating): 91.7%
FLUORESCENCE - PERCENT POSITIVE 3 HR ([1]; Example 7, 50 mg/ml coating): 91.7%
FLUORESCENCE - PERCENT POSITIVE 4 HR ([1]; Example 7, 50 mg/ml coating): 91.7%
FLUORESCENCE - PERCENT POSITIVE 5 HR ([1]; Example 7, 50 mg/ml coating): 91.7%
NO. GROWTH POSITIVE 168 HR [2, 5]: 23
NO. GROWTH POSITIVE 168 HR [2, 6]: 31
FLUORESCENCE - PERCENT POSITIVE 1 HR [3, 5]: 0%
FLUORESCENCE - PERCENT POSITIVE 2 HR [3, 5]: 13.0%
FLUORESCENCE - PERCENT POSITIVE 3 HR [3, 5]: 52.2%
FLUORESCENCE - PERCENT POSITIVE 4 HR [3, 5]: 56.5%
FLUORESCENCE - PERCENT POSITIVE 1 HR [3, 6]: 9.7%
FLUORESCENCE - PERCENT POSITIVE 2 HR [3, 6]: 19.4%
FLUORESCENCE - PERCENT POSITIVE 3 HR [3, 6]: 32.3%
FLUORESCENCE - PERCENT POSITIVE 4 HR [3, 6]: 45.2%
NO. GROWTH POSITIVE 168 HR ([4]; Example 7, 50 mg/ml coating): 12

Decaglyceryl Pentaoleate
accuracy of sterilization indicators compared to indicators made with untreated spores [1]: improved
FLUORESCENCE - PERCENT POSITIVE 1 HR ([1]; Example 6, 50 mg/ml coating): 82.4%
FLUORESCENCE - PERCENT POSITIVE 2 HR ([1]; Example 6, 50 mg/ml coating): 94.1%
FLUORESCENCE - PERCENT POSITIVE 3 HR ([1]; Example 6, 50 mg/ml coating): 100%
FLUORESCENCE - PERCENT POSITIVE 4 HR ([1]; Example 6, 50 mg/ml coating): 100%
FLUORESCENCE - PERCENT POSITIVE 5 HR ([1]; Example 6, 50 mg/ml coating): 100%
NO. GROWTH POSITIVE 168 HR [2, 5]: 16
NO. GROWTH POSITIVE 168 HR [2, 6]: 24
FLUORESCENCE - PERCENT POSITIVE 1 HR [3, 5]: 0%
FLUORESCENCE - PERCENT POSITIVE 2 HR [3, 5]: 0%
FLUORESCENCE - PERCENT POSITIVE 3 HR [3, 5]: 18.8%
FLUORESCENCE - PERCENT POSITIVE 4 HR [3, 5]: 31.3%
FLUORESCENCE - PERCENT POSITIVE 1 HR [3, 6]: 12.5%
FLUORESCENCE - PERCENT POSITIVE 2 HR [3, 6]: 25.0%
FLUORESCENCE - PERCENT POSITIVE 3 HR [3, 6]: 37.5%
FLUORESCENCE - PERCENT POSITIVE 4 HR [3, 6]: 45.8%
NO. GROWTH POSITIVE 168 HR ([4]; Example 6, 50 mg/ml coating): 17
